Source: patent US10143648B2, “Peptide and oside extract of schisandra fruit and improvement in the response of the cutaneous neurosensory system” (LABORATOIRES EXPANSCIENCE, priority 2014, dated 2018)

Columns and labels:
[1] = test system: CGRP; assay: CGRP release by sensory neurons stimulated by capsaicin in co-culture with keratinocytes; type: cell-based; conditions: 60 min pre-incubation, extract 0.005%-0.1% (DM) or capsazepine 10^-5 M, capsaicin 10^-7 M, 15 min
Procedure: Sensory neurons were cultured in the presence of normal human epidermal keratinocytes. After 3 days of co-culture, the neurons project extensions in the form of free endings in contact with the keratinocytes. The cells were then incubated in the presence of the peptide and oside extract of Schisandra Sphenanthera at concentrations of 0.005%, 0.01%, 0.05% and 0.1% (DM) or the reference molecule, capsazepine, at a concentration of 10^−5 M (Sigma). After 60 minutes of pre-incubation, the neurons (in co-culture) were stimulated by capsaicin at a concentration of 10^−7 M (Sigma). After 15 minutes of stimulation, the culture supernatants were collected in order to assay the released CGRP. The CGRP assay was carried out using the CGRP assay kit (SpiBio). The significance of the results was confirmed by one-way analysis of variance followed by Dunnett's test.

[2] = molecular target: T1, TRPV1 receptor (Homo sapiens, UniProt Q8NER1); assay: Intracytoplasmic calcium mobilization (Fluo-4) in sensory neurons stimulated by capsaicin in co-culture with keratinocytes; type: cell-based; conditions: capsaicin 10^-6 M, vs. control
T1 construct: Sensory neurons cultured in the presence of normal human epidermal keratinocytes; endogenous in cells; host or cells: sensory neurons in co-culture with normal human epidermal keratinocytes
T1 sequence (Q8NER1 whole entry): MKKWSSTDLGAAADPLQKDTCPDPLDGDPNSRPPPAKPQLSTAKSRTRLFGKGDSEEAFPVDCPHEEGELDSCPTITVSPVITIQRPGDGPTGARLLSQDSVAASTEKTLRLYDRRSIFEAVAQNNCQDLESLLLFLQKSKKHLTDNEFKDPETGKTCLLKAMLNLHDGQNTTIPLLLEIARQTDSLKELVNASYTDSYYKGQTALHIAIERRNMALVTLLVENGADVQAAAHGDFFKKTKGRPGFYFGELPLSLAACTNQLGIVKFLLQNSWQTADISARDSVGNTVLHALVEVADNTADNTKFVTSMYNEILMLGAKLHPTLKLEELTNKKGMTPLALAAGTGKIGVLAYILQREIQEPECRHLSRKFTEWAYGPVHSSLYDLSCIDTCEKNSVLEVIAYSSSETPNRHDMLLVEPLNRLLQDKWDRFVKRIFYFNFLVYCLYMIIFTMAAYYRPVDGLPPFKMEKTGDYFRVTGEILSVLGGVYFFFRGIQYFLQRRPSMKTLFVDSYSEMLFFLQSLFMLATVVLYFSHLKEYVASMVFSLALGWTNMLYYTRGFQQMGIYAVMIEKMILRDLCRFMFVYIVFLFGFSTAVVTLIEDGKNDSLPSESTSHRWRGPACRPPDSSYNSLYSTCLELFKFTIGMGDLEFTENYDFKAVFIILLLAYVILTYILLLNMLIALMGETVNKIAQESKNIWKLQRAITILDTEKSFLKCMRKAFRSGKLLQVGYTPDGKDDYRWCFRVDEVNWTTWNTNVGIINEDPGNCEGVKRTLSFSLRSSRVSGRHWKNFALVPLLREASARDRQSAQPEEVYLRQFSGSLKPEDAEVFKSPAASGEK
Procedure: Activation of the TRPV1 receptor on sensory neurons can be evaluated by analyzing the electrical activity of sensory neurons by monitoring variations of the cytoplasmic calcium concentration. Indeed, when cells are stimulated by capsaicin, a massive amount of extracellular calcium enters the neuronal cytoplasm in order to trigger electrical activity and to cause a massive release of neuropeptides in the extracellular space. The variation of the level of fluorescence is analyzed by the incorporation of a calcium-dependent fluorescent probe (Fluo-4) in the cells. Thus, during the increase in calcium in the cells, the level of fluorescence increases in the cell body of the neurons. The higher this level, the higher the stimulation of the neurons. Sensory neurons cultured in the presence of normal human epidermal keratinocytes were incubated in the presence of the peptide and oside extract of Schisandra sphenanthera at concentrations of 0.005%, 0.01%, 0.05% and 0.1% (DM) or the reference molecule, capsazepine, at a concentration of 10^−5 M (Sigma). After 60 minutes of pre-incubation, the fluorescent probe, Fluo-4 (Molecular probe), was added to the culture medium and the cells were incubated 30 minutes. […] The significance of the results was confirmed by Bartlett's test.

Structure (SMILES) | release of CGRP induced by capsaicin [1] | level of fluorescence (quantity of intracytoplasmic calcium) after addition of the stimulus [2]
Oc1cc2c(cc1O)CN(C(=S)NCCc1ccc(Cl)cc1)CCC2 [capsazepine] | inhibitory effect | 
COc1cc(CNC(=O)CCCC/C=C/C(C)C)ccc1O [capsaicin] |  | significant increase in the level of fluorescence
